In brackets after ≈: the same amount, converted by molar mass.
Experiments:
Format in all cases: functional
Pseudomonas fluorescens = assay: Antimicrobial activity against Pseudomonas fluorescens CGMCC1.1828 after 24 hrs by twofold serial microdilution method; conditions: CGMCC1.1828, 24 h
Staphylococcus aureus = assay: Antimicrobial activity against Staphylococcus aureus CGMCC1.1361 after 24 hrs by twofold serial microdilution method; conditions: CGMCC1.1361, 24 h
Escherichia coli = assay: Antimicrobial activity against Escherichia coli CGMCC1.1571 after 24 hrs by twofold serial microdilution method; conditions: CGMCC1.1571, 24 h
Bacillus subtilis = assay: Antimicrobial activity against Bacillus subtilis CGMCC1.1162 after 24 hrs by twofold serial microdilution method; conditions: CGMCC1.1162, 24 h
Candida tropicalis = assay: Antimicrobial activity against Candida tropicalis CGMCC2.3967 after 48 hrs by twofold serial microdilution method; conditions: CGMCC2.3967, 48 h
Candida albicans = assay: Antimicrobial activity against Candida albicans CGMCC2.2086 after 48 hrs by twofold serial microdilution method; conditions: CGMCC2.2086, 48 h
Aspergillus niger = assay: Antimicrobial activity against Aspergillus niger CGMCC3.316 after 48 hrs by twofold serial microdilution method; conditions: CGMCC3.316, 48 h

SMILES	MIC (Pseudomonas fluorescens)	MIC (Staphylococcus aureus)	MIC (Escherichia coli)	MIC (Bacillus subtilis)	MIC (Candida tropicalis)	MIC (Candida albicans)	MIC (Aspergillus niger)
NCC[C@H](O)C(=O)N[C@@H]1C[C@H](N)[C@@H](O[C@H]2O[C@H](CN)[C@@H](O)[C@H](O)[C@H]2O)[C@H](O)[C@H]1O[C@H]1O[C@H](CO)[C@@H](O)[C@H](N)[C@H]1O.O=S(=O)(O)O	0.9 mg/L	0.9 mg/L	1.9 mg/L	0.9 mg/L			
COC(=O)[C@]1(C)CCC[C@]2(C)c3ccc(C(C)C)cc3-c3[nH]c4ccccc4c3[C@@H]12	62.5 mg/L (≈ 156 µM)	62.5 mg/L (≈ 156 µM)	> 100 mg/L	31.2 mg/L (≈ 77.7 µM)	> 100 mg/L	> 100 mg/L	> 100 mg/L
COC(=O)[C@]1(C)CCC[C@]2(C)c3ccc(C(C)C)cc3-c3c(c4ccccc4n3CCn3ccnc3)[C@@H]12	> 100 mg/L	15.6 mg/L (≈ 31.5 µM)	62.5 mg/L (≈ 126 µM)	31.2 mg/L (≈ 62.9 µM)	> 100 mg/L	62.5 mg/L (≈ 126 µM)	> 100 mg/L
COC(=O)[C@]1(C)CCC[C@]2(C)c3ccc(C(C)C)cc3-c3c(c4ccccc4n3CCn3c([N+](=O)[O-])cnc3C)[C@@H]12	7.8 mg/L (≈ 14.1 µM)	1.9 mg/L (≈ 3.43 µM)	7.8 mg/L (≈ 14.1 µM)	0.9 mg/L (≈ 1.62 µM)	31.2 mg/L (≈ 56.2 µM)	31.2 mg/L (≈ 56.2 µM)	> 100 mg/L
COC(=O)[C@]1(C)CCC[C@]2(C)c3ccc(C(C)C)cc3-c3c(c4ccccc4n3CCn3cnc4ccccc43)[C@@H]12	31.2 mg/L (≈ 57.2 µM)	31.2 mg/L (≈ 57.2 µM)	31.2 mg/L (≈ 57.2 µM)	31.2 mg/L (≈ 57.2 µM)	62.5 mg/L (≈ 115 µM)	31.2 mg/L (≈ 57.2 µM)	> 100 mg/L
COC(=O)[C@]1(C)CCC[C@]2(C)c3ccc(C(C)C)cc3-c3c(c4ccccc4n3CCBr)[C@@H]12	> 100 mg/L	62.5 mg/L (≈ 123 µM)	> 100 mg/L	31.2 mg/L (≈ 61.4 µM)	> 100 mg/L	> 100 mg/L	> 100 mg/L
COC(=O)[C@]1(C)CCC[C@]2(C)c3ccc(C(C)C)cc3-c3c(c4ccccc4n3CCN(C)C)[C@@H]12	62.5 mg/L (≈ 132 µM)	> 100 mg/L	> 100 mg/L	62.5 mg/L (≈ 132 µM)	> 100 mg/L	> 100 mg/L	> 100 mg/L
CCN(CC)CCn1c2c(c3ccccc31)[C@H]1[C@](C)(C(=O)OC)CCC[C@]1(C)c1ccc(C(C)C)cc1-2	62.5 mg/L (≈ 125 µM)	62.5 mg/L (≈ 125 µM)	> 100 mg/L	31.2 mg/L (≈ 62.3 µM)	> 100 mg/L	62.5 mg/L (≈ 125 µM)	> 100 mg/L
CCCN(CCC)CCn1c2c(c3ccccc31)[C@H]1[C@](C)(C(=O)OC)CCC[C@]1(C)c1ccc(C(C)C)cc1-2	31.2 mg/L (≈ 59 µM)	31.2 mg/L (≈ 59 µM)	31.2 mg/L (≈ 59 µM)	15.6 mg/L (≈ 29.5 µM)	62.5 mg/L (≈ 118 µM)	31.2 mg/L (≈ 59 µM)	> 100 mg/L
CCCCN(CCCC)CCn1c2c(c3ccccc31)[C@H]1[C@](C)(C(=O)OC)CCC[C@]1(C)c1ccc(C(C)C)cc1-2	15.6 mg/L (≈ 28 µM)	15.6 mg/L (≈ 28 µM)	31.2 mg/L (≈ 56 µM)	15.6 mg/L (≈ 28 µM)	31.2 mg/L (≈ 56 µM)	31.2 mg/L (≈ 56 µM)	62.5 mg/L (≈ 112 µM)
COC(=O)[C@]1(C)CCC[C@]2(C)c3ccc(C(C)C)cc3-c3c(c4ccccc4n3CCN(CCO)CCO)[C@@H]12	62.5 mg/L (≈ 117 µM)	> 100 mg/L	62.5 mg/L (≈ 117 µM)	62.5 mg/L (≈ 117 µM)	31.2 mg/L (≈ 58.6 µM)	62.5 mg/L (≈ 117 µM)	> 100 mg/L
COC(=O)[C@]1(C)CCC[C@]2(C)c3ccc(C(C)C)cc3-c3c(c4ccccc4n3CCNc3ccc(C)cc3)[C@@H]12	> 100 mg/L	> 100 mg/L	> 100 mg/L	62.5 mg/L (≈ 117 µM)	> 100 mg/L	> 100 mg/L	> 100 mg/L
COC(=O)[C@]1(C)CCC[C@]2(C)c3ccc(C(C)C)cc3-c3c(c4ccccc4n3CCNc3ccc(OC)cc3)[C@@H]12	> 100 mg/L	62.5 mg/L (≈ 113 µM)	> 100 mg/L	> 100 mg/L	> 100 mg/L	> 100 mg/L	> 100 mg/L
COC(=O)[C@]1(C)CCC[C@]2(C)c3ccc(C(C)C)cc3-c3c(c4ccccc4n3CCNc3ccc(Cl)cc3)[C@@H]12	62.5 mg/L (≈ 113 µM)	31.2 mg/L (≈ 56.2 µM)	> 100 mg/L	31.2 mg/L (≈ 56.2 µM)	> 100 mg/L	62.5 mg/L (≈ 113 µM)	> 100 mg/L
COC(=O)[C@]1(C)CCC[C@]2(C)c3ccc(C(C)C)cc3-c3c(c4ccccc4n3CCNc3ccc(Br)cc3)[C@@H]12	> 100 mg/L	62.5 mg/L (≈ 104 µM)	> 100 mg/L	31.2 mg/L (≈ 52 µM)	> 100 mg/L	> 100 mg/L	> 100 mg/L
COC(=O)[C@]1(C)CCC[C@]2(C)c3ccc(C(C)C)cc3-c3c(c4ccccc4n3CCNc3ccc([N+](=O)[O-])cc3)[C@@H]12	15.6 mg/L (≈ 27.6 µM)	7.8 mg/L (≈ 13.8 µM)	31.2 mg/L (≈ 55.2 µM)	15.6 mg/L (≈ 27.6 µM)	62.5 mg/L (≈ 110 µM)	31.2 mg/L (≈ 55.2 µM)	> 100 mg/L
COC(=O)[C@]1(C)CCC[C@]2(C)c3ccc(C(C)C)cc3C(=O)C[C@@H]12	62.5 mg/L (≈ 190 µM)	31.2 mg/L (≈ 95 µM)	> 100 mg/L	31.2 mg/L (≈ 95 µM)	> 100 mg/L	> 100 mg/L	> 100 mg/L
CC(=O)N1CCN(c2ccc(OCC3COC(Cn4ccnc4)(c4ccc(Cl)cc4Cl)O3)cc2)CC1 (racemic) [KETOCONAZOLE]					3.9 mg/L (≈ 7.34 µM)	3.9 mg/L (≈ 7.34 µM)	7.8 mg/L (≈ 14.7 µM)

Next, values leading:

MIC (Pseudomonas fluorescens)	MIC (Staphylococcus aureus)	MIC (Escherichia coli)	MIC (Bacillus subtilis)	MIC (Candida tropicalis)	MIC (Candida albicans)	MIC (Aspergillus niger)	SMILES
31.2 mg/L (≈ 62.8 µM)	31.2 mg/L (≈ 62.8 µM)	15.6 mg/L (≈ 31.4 µM)	7.8 mg/L (≈ 15.7 µM)	> 100 mg/L	> 100 mg/L	> 100 mg/L	COC(=O)[C@]1(C)CCC[C@]2(C)c3ccc(C(C)C)cc3-c3c(c4ccccc4n3CCn3ccnn3)[C@@H]12
15.6 mg/L (≈ 31.3 µM)	31.2 mg/L (≈ 62.7 µM)	31.2 mg/L (≈ 62.7 µM)	7.8 mg/L (≈ 15.7 µM)	62.5 mg/L (≈ 126 µM)	31.2 mg/L (≈ 62.7 µM)	> 100 mg/L	COC(=O)[C@]1(C)CCC[C@]2(C)c3ccc(C(C)C)cc3-c3c(c4ccccc4n3CCn3cnnn3)[C@@H]12
62.5 mg/L (≈ 126 µM)	31.2 mg/L (≈ 62.7 µM)	62.5 mg/L (≈ 126 µM)	31.2 mg/L (≈ 62.7 µM)	> 100 mg/L	> 100 mg/L	> 100 mg/L	COC(=O)[C@]1(C)CCC[C@]2(C)c3ccc(C(C)C)cc3-c3c(c4ccccc4n3CCn3ncnn3)[C@@H]12
> 100 mg/L	62.5 mg/L (≈ 125 µM)	> 100 mg/L	31.2 mg/L (≈ 62.6 µM)	> 100 mg/L	> 100 mg/L	> 100 mg/L	COC(=O)[C@]1(C)CCC[C@]2(C)c3ccc(C(C)C)cc3-c3c(c4ccccc4n3CCN3CCCC3)[C@@H]12
62.5 mg/L (≈ 122 µM)	62.5 mg/L (≈ 122 µM)	> 100 mg/L	15.6 mg/L (≈ 30.4 µM)	62.5 mg/L (≈ 122 µM)	> 100 mg/L	> 100 mg/L	COC(=O)[C@]1(C)CCC[C@]2(C)c3ccc(C(C)C)cc3-c3c(c4ccccc4n3CCN3CCCCC3)[C@@H]12
31.2 mg/L (≈ 60.6 µM)	7.8 mg/L (≈ 15.2 µM)	31.2 mg/L (≈ 60.6 µM)	15.6 mg/L (≈ 30.3 µM)	31.2 mg/L (≈ 60.6 µM)	62.5 mg/L (≈ 121 µM)	62.5 mg/L (≈ 121 µM)	COC(=O)[C@]1(C)CCC[C@]2(C)c3ccc(C(C)C)cc3-c3c(c4ccccc4n3CCN3CCOCC3)[C@@H]12
15.6 mg/L (≈ 30.4 µM)	15.6 mg/L (≈ 30.4 µM)	15.6 mg/L (≈ 30.4 µM)	7.8 mg/L (≈ 15.2 µM)	31.2 mg/L (≈ 60.7 µM)	31.2 mg/L (≈ 60.7 µM)	62.5 mg/L (≈ 122 µM)	COC(=O)[C@]1(C)CCC[C@]2(C)c3ccc(C(C)C)cc3-c3c(c4ccccc4n3CCN3CCNCC3)[C@@H]12
7.8 mg/L (≈ 14.8 µM)	1.9 mg/L (≈ 3.6 µM)	15.6 mg/L (≈ 29.6 µM)	3.9 mg/L (≈ 7.39 µM)	7.8 mg/L (≈ 14.8 µM)	7.8 mg/L (≈ 14.8 µM)	7.8 mg/L (≈ 14.8 µM)	COC(=O)[C@]1(C)CCC[C@]2(C)c3ccc(C(C)C)cc3-c3c(c4ccccc4n3CCN3CCN(C)CC3)[C@@H]12

Source: ChEMBL document CHEMBL3098094, “Synthesis and biological evaluation of novel N-substituted 1H-dibenzo[a,c]carbazole derivatives of dehydroabietic acid as potential antimicrobial agents” (2014)
